Columns and labels:
in vivo = conditions: mouse, iv, 1 mg/kg, I.V. 1 mg/kg; for AUC(0-inf): AUC0-∞; for AUC(0-inf) / AUC(0-t) / Cmax / MRT last / MRT inf / Tmax: mice; for AUC(0-t): AUC0-t; for MRT last: MRT0-t; for MRT inf: MRT0-∞; for half-life: T1/2, mice
SARS-CoV-2 = assay: microbe, parasite or virus in culture; assay type: cell-based; conditions: Severe acute respiratory syndrome coronavirus 2, Vero; read-out: EC50 antiviral replication effect
[1] = Lung distribution in mice after oral administration
[2] = Lung distribution in rats after oral administration
[3] = In vivo plasma pharmacokinetics in mice; conditions: for MRT last: read-out: MRT0-t; for MRT inf: read-out: MRT0-∞
Protocol: After dosage, blood samples were collected into heparinized tubes at 2, 5, 15, 30, 60, 120, 240, 360, 540, and 720 min for the i.v. group, and at 5, 15, 30, 60, 90, 120, 240, 360, 540, 720 and 1440 min for the i.g. group. Plasma (100 μL) was isolated from the blood sample by centrifuging at 4 °C and 6000 rpm for 3 min and then stored at − 80 °C until analysis. An aliquot of 100 μL of each plasma sample was mixed with 20 μL of internal standard working solution (200 ng/mL of caffeine). Methanol (400 μL) was then added for precipitation. After vortexing for 5 min and centrifuging at 14000 rpm for 10 min, 5 μL of the supernatant was injected for LC-MS/MS analysis.
The PK parameters were analyzed through the noncompartment model using WinNonlin 6.1 software (Pharsight Corporation, Mountain View, USA), including half-life (T1/2), the peak of the plasma concentration (Cmax), the time to peak of the plasma concentration (Tmax), the area under the plasma concentration-time curve during the period of observation (AUC0-t), the area under the plasma concentration-time curve from zero to infinity (AUC0-∞), clearance (CL), apparent volume of distribution (Vd), and the mean residence time.

[4] = system: SARS-CoV-2 specific nucleocapsid; assay: Western blot analysis of nucleocapsid level in Vero cells; assay type: cell-based
[5] = 1 mg/kg (P.O.) single dose, 1 h
[6] = 1 mg/kg (P.O.) single dose, 2 h
[7] = 1 mg/kg (P.O.) single dose, 4 h
[8] = 1 mg/kg (P.O.) single dose, 6 h
[9] = 1 mg/kg (P.O.) single dose, 9 h
[10] = 1 mg/kg (P.O.) single dose, 24 h
[11] = 1 mg/kg (P.O.) single dose, 48 h
[12] = 1 mg/kg (P.O.) single dose, 72 h
[13] = 1 mg/kg (Q.D.× 3 days, P.O.), 1 h
[14] = 1 mg/kg (Q.D.× 3 days, P.O.), 2 h
[15] = 1 mg/kg (Q.D.× 3 days, P.O.), 4 h
[16] = 1 mg/kg (Q.D.× 3 days, P.O.), 6 h
[17] = 1 mg/kg (Q.D.× 3 days, P.O.), 9 h
[18] = 1 mg/kg (Q.D.× 3 days, P.O.), 12 h
[19] = 1 mg/kg (Q.D.× 3 days, P.O.), 24 h
[20] = 1 mg/kg (Q.D.× 3 days, P.O.), 72 h

## CC[C@H]1CN2CCc3cc(OC)c(OC)cc3[C@@H]2C[C@@H]1C[C@H]1NCCc2cc(OC)c(OC)cc21 [Emetine]
In vivo; male, Kidney
  AUC(0-inf): 99100 ng·h/mL
In vivo; male, Lung
  AUC(0-inf): 65400 ng·h/mL
In vivo; Kidney
  AUC(0-t): 37000 ng·h/mL
  Cmax: 4550 ng/mL
  MRT last: 5.23 h
  MRT inf: 28.4 h
  half-life: 20.9 h
  Tmax: 0.5 h
In vivo; Liver
  AUC(0-t): 41300 ng·h/mL
  AUC(0-inf): 139000 ng·h/mL
  Cmax: 4420 ng/mL
  MRT last: 6.67 h
  MRT inf: 28 h
  half-life: 17.3 h
  Tmax: 9 h
In vivo; Lung
  AUC(0-t): 35400 ng·h/mL
  Cmax: 8580 ng/mL
  MRT last: 5.13 h
  MRT inf: 15.9 h
  half-life: 11.5 h
  Tmax: 0.03 h
SARS-CoV-2
  EC50: 7 nM
[1]; [5]
  Mice lung con.: 0.23 ± 0.04 ng/mL
[1]; [6]
  Mice lung con.: 0.50 ± 0.35 ng/mL
[1]; [7]
  Mice lung con.: 0.81 ± 0.16 ng/mL
[1]; [8]
  Mice lung con.: 1.06 ± 0.09 ng/mL
[1]; [9]
  Mice lung con.: 1.75 ± 0.28 ng/mL
[1]; [10]
  Mice lung con.: 1.13 ± 0.18 ng/mL
[1]; [11]
  Mice lung con.: 0.61 ± 0.09 ng/mL
[1]; [12]
  Mice lung con.: 0.23 ± 0.06 ng/mL
[1]; [13]
  Mice lung con.: 6.17 ± 1.54 ng/mL
[1]; [14]
  Mice lung con.: 6.44 ± 0.96 ng/mL
[1]; [15]
  Mice lung con.: 6.73 ± 0.40 ng/mL
[1]; [16]
  Mice lung con.: 7.14 ± 2.10 ng/mL
[1]; [17]
  Mice lung con.: 7.46 ± 0.89 ng/mL
[1]; [18]
  Mice lung con.: 7.26 ± 0.93 ng/mL
[1]; [19]
  Mice lung con.: 4.61 ± 0.84 ng/mL
[1]; [20]
  Mice lung con.: 2.17 ± 0.42 ng/mL
[1]; in vivo animal PK study, species not named at the place
  retention time in lung tissue: over 12 h
[1]; mice, 1 mg/kg single oral dose
  time of maximum lung concentration: 12 h
[1]; mice, 1 mg/kg/day oral 3 days
  time of maximum lung concentration (Cmax): 9 h
[2]; [5]
  Rat lung con.: 0.15 ± 0.03 ng/mL
[2]; [6]
  Rat lung con.: 0.26 ± 0.06 ng/mL
[2]; [7]
  Rat lung con.: 0.93 ± 0.32 ng/mL
[2]; [8]
  Rat lung con.: 1.01 ± 0.10 ng/mL
[2]; [9]
  Rat lung con.: 1.47 ± 0.09 ng/mL
[2]; 1 mg/kg (P.O.) single dose, 12 h
  Rat lung con.: 1.61 ± 0.48 ng/mL
[2]; [10]
  Rat lung con.: 1.32 ± 0.63 ng/mL
[2]; [11]
  Rat lung con.: 0.76 ± 0.11 ng/mL
[2]; [12]
  Rat lung con.: 0.36 ± 0.08 ng/mL
[2]; [13]
  Rat lung con.: 5.78 ± 0.61 ng/mL
[2]; [14]
  Rat lung con.: 6.51 ± 0.67 ng/mL
[2]; [15]
  Rat lung con.: 6.65 ± 1.21 ng/mL
[2]; [16]
  Rat lung con.: 6.96 ± 0.87 ng/mL
[2]; [17]
  Rat lung con.: 8.34 ± 1.09 ng/mL
[2]; [18]
  Rat lung con.: 8.16 ± 1.58 ng/mL
[2]; [19]
  Rat lung con.: 7.25 ± 0.79 ng/mL
[2]; 1 mg/kg (Q.D.× 3 days, P.O.), 48 h
  Rat lung con.: 5.97 ± 0.81 ng/mL
[2]; [20]
  Rat lung con.: 4.89 ± 1.35 ng/mL
[2]; rats, 1 mg/kg single oral dose, 12 h, 1 mg/kg
  Lung concentration: 1.6 µM
[2]; rats, 1 mg/kg/day oral 3 days
  time of maximum lung concentration (Cmax): 9 h
[3]; I.V. 1 mg/kg
  AUMC0-t: 616 ± 181 hr*hr.*ng/mL
  AUMC0-∞: 3472 ± 1149 hr*hr.*ng/mL
[3]; P.O. 10 mg/kg
  AUMC0-t: 8355 ± 2710 hr*hr.*ng/mL
  AUMC0-∞: 36,666 ± 31,176 hr*hr.*ng/mL
  Cl: 143.5 ± 64.88 mL/min/kg
  Vz: 174,470 ± 45,790 mL/kg
[3]; male, mouse, iv, I.V. 1 mg/kg
  AUC(0-inf): 258 ± 71 ng·h/mL
  AUC(0-t): 120 ± 26 ng·h/mL
  C0: 172 ± 86 ng/mL
  Cmax: 111 ± 13.5 ng/mL
  Tmax: 0.03 h
  clearance: 68.6 mL/min/kg
  half-life: 6.24 ± 1.17 h
  MRT last: 5.06 ± 0.57 h
  MRT inf: 13.4 ± 1.37 h
[3]; male, mouse, iv, I.V. 1 mg/kg, read-out: Vz
  Vd: 38.4 L/kg
[3]; male, mouse, po, P.O. 10 mg/kg
  AUC(0-inf): 1340 ± 625 ng·h/mL
  AUC(0-t): 811 ± 208 ng·h/mL
  Cmax: 61.6 ± 15.1 ng/mL
  Tmax: 1.67 ± 0.58 h
  half-life: 15.9 ± 8.22 h
  MRT last: 10.2 ± 1.31 h
  MRT inf: 24.3 ± 10 h
[3]; male, mouse, po, P.O. 10 mg/kg vs I.V. 1 mg/kg, read-out: F (oral bioavailability)
  bioavailability: 52.1 ± 24.2%
[4]; Vero cells infected […], then drug 24 h
  SARS-CoV-2 specific nucleocapsid level, anti-replication effect: dose-dependently decreased
[4]; Vero cells pretreated with drug […], virus […], 24 h
  SARS-CoV-2 specific nucleocapsid level, anti-entry effect: confirmed this trend

Source: paper PMC7700809 (Molecular Biomedicine, 2020)
